{
  "source": "ChEMBL document CHEMBL4765332",
  "about": "“A multi-scale systems pharmacology approach uncovers the anti-cancer molecular mechanism of Ixabepilone” (Eur J Med Chem, 2020)",
  "key": {"BT-549 [1]": {"system": "BT-549", "assay": "Induction of apoptosis in human BT-549 cells assessed as necrotic cells incubated for 48 hrs in presence of 20 uM autophagy inhibitor, CQ by AnnexinV-FITC and propidium iodide staining based flow cytometry analysis(reference value: 0.86%)", "type": "functional"}, "MDA-MB-231 [2]": {"system": "MDA-MB-231", "assay": "Cytotoxicity against human MDA-MB-231 cells at 0.1 to 1.6 uM measured after 48 hrs in presence of 2 mM autophagy inhibitor, 3-methyladenine by CCK8 assay", "type": "functional, cell-based", "settings": "dose 0.1-1.6 µM"}, "BT-549 [3]": {"system": "BT-549", "assay": "Induction of apoptosis in human BT-549 cells assessed as viable cells incubated for 48 hrs by AnnexinV-FITC and propidium iodide staining based flow cytometry analysis(reference value: 98.6%)", "type": "functional"}, "BT-549 [4]": {"system": "BT-549", "assay": "Induction of apoptosis in human BT-549 cells assessed as late apoptotic cells incubated for 48 hrs in presence of 20 uM autophagy inhibitor, CQ by AnnexinV-FITC and propidium iodide staining based flow cytometry analysis(reference value: 2.64%)", "type": "functional"}, "Mus musculus": {"system": "Mus musculus", "assay": "Downregulation of Ki67 expression in tumor tissue of BALB/c mouse xenografted with human MDA-MB-231 cells at 3 mg/kg, ip administered with compound every other day and with 10 mg/kg, ip CQ every day by immunohistochemical staining", "type": "functional, organism-based"}, "MCF7": {"system": "MCF7", "assay": "Induction of autophagy in human MCF-7 cells assessed as increase in LC3-II level measured after 48 hrs by Western blot analysis", "type": "functional, cell-based", "settings": "dose 0.05-0.4 µM"}, "[5]": {"target": "T1, Apoptosis regulator Bcl-2 (Homo sapiens, UniProt P10415)", "T1 sequence (P10415 whole entry)": "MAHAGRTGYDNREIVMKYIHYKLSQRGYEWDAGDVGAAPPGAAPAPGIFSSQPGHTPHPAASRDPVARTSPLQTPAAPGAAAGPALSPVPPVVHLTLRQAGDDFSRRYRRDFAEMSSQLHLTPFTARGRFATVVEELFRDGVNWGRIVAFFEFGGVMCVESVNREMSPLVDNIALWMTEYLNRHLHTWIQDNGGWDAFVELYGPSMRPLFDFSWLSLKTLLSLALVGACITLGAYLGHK", "assay": "Upregulation of Bcl-2 phosphorylation at Ser70 residue in human MCF7 cells at 0.05 to 0.4 microM incubated for 48 hrs by western blot analysis", "type": "cell-based", "settings": "dose 0.05-0.4 µM"}, "BT-549 [6]": {"system": "BT-549", "assay": "Induction of autophagy in human BT-549 cells assessed increase in LC3-II level at 0.1 to 0.2 uM preincubated with 20 uM autophagosome-lysosome fusion inhibitor, chloroquine for 1 hr followed by incubation with compound for 48 hrs by western blot analysis", "type": "functional, cell-based", "settings": "dose 0.1-0.2 µM"}, "BT-549 [7]": {"system": "BT-549", "assay": "Induction of apoptosis in human BT-549 cells assessed as viable cells incubated for 48 hrs in presence of 20 uM autophagy inhibitor, CQ by AnnexinV-FITC and propidium iodide staining based flow cytometry analysis(reference value: 94.6%)", "type": "functional"}, "HepG2 [8]": {"system": "HepG2", "assay": "Cytotoxicity against human HepG2 cells at 0.1 to 1.6 uM measured after 48 hrs in presence of 20 uM autophagy inhibitor, chloroquine by CCK8 assay", "type": "functional, cell-based", "settings": "dose 0.1-1.6 µM"}, "BT-549 [9]": {"system": "BT-549", "assay": "Induction of autophagy in human BT-549 cells assessed as increase in LC3-II level at 0.1 uM by Western blot analysis", "type": "functional, cell-based", "settings": "time 12-48 hrs, TDE = time-dependent effect"}, "BT-549 [10]": {"system": "BT-549", "assay": "Induction of apoptosis in human BT-549 cells assessed as early apoptotic cells incubated for 48 hrs in presence of 20 uM autophagy inhibitor, CQ by AnnexinV-FITC and propidium iodide staining based flow cytometry analysis(reference value: 1.94%)", "type": "functional"}, "[11]": {"target": "T1, Apoptosis regulator Bcl-2", "assay": "Induction of Bcl-2 phosphorylation-mediated protein degradation in human HepG2 cells assessed as decrease in Bcl-2 expression at 0.4 uM measured after 12 to 48 hrs by western blot analysis", "type": "cell-based", "settings": "time 12-48 hrs"}, "HepG2 [12]": {"system": "HepG2", "assay": "Induction of autophagy in human HepG2 cells assessed as increase in LC3-II expression at 0.4 to 6.4 uM measured after 48 hrs by western blot analysis", "type": "functional, cell-based", "settings": "dose 0.4-6.4 µM"}, "BT-549 [13]": {"system": "BT-549", "assay": "Induction of apoptosis in human BT-549 cells assessed as increase in cleaved PARP level pretreated with 20 uM autophagy inhibitor, CQ for 1 hr followed by incubation with drug for 48 hrs by western blot analysis", "type": "functional, cell-based"}, "MDA-MB-231 [14]": {"system": "MDA-MB-231", "assay": "Antitumor activity against human MDA-MB-231 cells xenografted in BALB/c mouse assessed as tumor growth inhibition at 3 mg/kg, ip administered with compound every other day and with 10 mg/kg, ip CQ every day and measured every 3 days by vernier caliper analysis", "type": "functional, organism-based"}, "MDA-MB-231 [15]": {"system": "MDA-MB-231", "assay": "Induction of apoptosis in human MDA-MB-231 cells assessed as increase in cleaved PARP level pretreated with 20 uM autophagy inhibitor, CQ for 1 hr followed by incubation with drug for 48 hrs by western blot analysis", "type": "functional, cell-based"}, "[16]": {"target": "T1, Apoptosis regulator Bcl-2", "assay": "Induction of Bcl-2 phosphorylation-mediated protein degradation in human BT549 cells assessed as decrease in Bcl-2 expression at 0.1 to 0.2 uM pretreated with proteasome inhibitor, MG132 for 2 hrs followed by incubation with compound for 48 hrs by western blot analysis", "type": "cell-based", "settings": "BT-549, dose 0.1-0.2 µM"}, "U-251 [17]": {"system": "U-251", "assay": "Induction of autophagy in human U251 cells assessed as increase in LC3-II expression at 0.4 uM measured after 12 to 48 hrs by western blot analysis", "type": "functional, cell-based", "settings": "time 12-48 hrs"}, "U-251 [18]": {"system": "U-251", "assay": "Induction of autophagy in human U251 cells assessed as increase in LC3-II expression at 0.4 to 6.4 uM measured after 48 hrs by western blot analysis", "type": "functional, cell-based", "settings": "dose 0.4-6.4 µM"}, "BT-549 [19]": {"system": "BT-549", "assay": "Induction of apoptosis in human BT-549 cells assessed as early apoptotic cells incubated for 48 hrs by AnnexinV-FITC and propidium iodide staining based flow cytometry analysis(reference value: 0.609%)", "type": "functional"}, "BT-549 [20]": {"system": "BT-549", "assay": "Induction of apoptosis in human BT-549 cells assessed as late apoptotic cells incubated for 48 hrs by AnnexinV-FITC and propidium iodide staining based flow cytometry analysis(reference value: 0.599%)", "type": "functional"}, "MDA-MB-231 [21]": {"system": "MDA-MB-231", "assay": "Cytotoxicity against human MDA-MB-231 cells transfected with non-targeting siRNA at 0.1 to 1.6 uM measured after 48 hrs by CCK8 assay", "type": "functional, cell-based", "settings": "dose 0.1-1.6 µM"}, "[22]": {"target": "T1, Apoptosis regulator Bcl-2", "assay": "Induction of Bcl-2 phosphorylation-mediated protein degradation in human MCF7 cells assessed as decrease in Bcl-2 expression at 0.1 uM by western blot analysis", "type": "cell-based", "settings": "time 12-48 hrs, TDE = time-dependent effect"}, "[23]": {"target": "T1, Apoptosis regulator Bcl-2", "assay": "Induction of Bcl-2 phosphorylation-mediated protein degradation in human HepG2 cells assessed as decrease in Bcl-2 expression at 0.4 to 6.4 uM measured after 48 hrs by western blot analysis", "type": "cell-based", "settings": "dose 0.4-6.4 µM"}, "MDA-MB-231 [24]": {"system": "MDA-MB-231", "assay": "Cytotoxicity against human MDA-MB-231 cells transfected with Beclin1 siRNA at 0.1 to 1.6 uM measured after 48 hrs by CCK8 assay", "type": "functional, cell-based", "settings": "dose 0.1-1.6 µM"}, "[25]": {"target": "T1, Apoptosis regulator Bcl-2", "assay": "Induction of Bcl-2 phosphorylation-mediated protein degradation in human MCF7 cells assessed as decrease in Bcl-2 expression at 0.1 to 0.2 uM pretreated with proteasome inhibitor, MG132 for 2 hrs followed by incubation with compound for 48 hrs by western blot analysis", "type": "cell-based", "settings": "dose 0.1-0.2 µM"}, "BT-549 [26]": {"system": "BT-549", "assay": "Induction of autophagy in human BT-549 cells assessed as increase in LC3-II level measured after 48 hrs by Western blot analysis", "type": "functional, cell-based", "settings": "dose 0.05-0.4 µM"}, "U-251 [27]": {"system": "U-251", "assay": "Cytotoxicity against human U251 cells at 0.1 to 1.6 uM measured after 48 hrs in presence of 20 uM autophagy inhibitor, chloroquine by CCK8 assay", "type": "functional, cell-based", "settings": "dose 0.1-1.6 µM"}, "BT-549 [28]": {"system": "BT-549", "assay": "Cytotoxicity against human BT-549 cells at 0.1 to 1.6 uM measured after 48 hrs in presence of 20 uM autophagy inhibitor, chloroquine by CCK8 assay", "type": "functional, cell-based", "settings": "dose 0.1-1.6 µM"}},
  "note": "Calls of active or inactive are those of the source. No cut-off for these calls is given here.",
  "data": [
    {"smiles": "C/C(=C\\c1csc(C)n1)[C@@H]1C[C@@H]2O[C@]2(C)CCC[C@H](C)[C@H](O)[C@@H](C)C(=O)C(C)(C)[C@@H](O)CC(=O)N1", "note": "[IXABEPILONE]", "values": [
      {"measurement": "Activity", "setting": "BT-549 [1]", "result": 3.53, "unit": "%"},
      {"measurement": "Activity", "setting": "MDA-MB-231 [2]", "result": "Active"},
      {"measurement": "Activity", "setting": "BT-549 [3]", "result": 86.3, "unit": "%"},
      {"measurement": "Activity", "setting": "BT-549 [4]", "result": 18, "unit": "%"},
      {"measurement": "inhibition", "setting": "Mus musculus", "result": "Active"},
      {"measurement": "Activity", "setting": "MCF7", "result": "Dose-dependent effect"},
      {"measurement": "Activity", "setting": "[5]", "result": "Active"},
      {"measurement": "Activity", "setting": "BT-549 [6]", "result": "Active"},
      {"measurement": "Activity", "setting": "BT-549 [7]", "result": 74.3, "unit": "%"},
      {"measurement": "Activity", "setting": "HepG2 [8]", "result": "Active"},
      {"measurement": "Activity", "setting": "BT-549 [9]", "result": "Tde"},
      {"measurement": "Activity", "setting": "BT-549 [10]", "result": 4.2, "unit": "%"},
      {"measurement": "Activity", "setting": "[11]", "result": "Active"},
      {"measurement": "Activity", "setting": "HepG2 [12]", "result": "Active"},
      {"measurement": "Activity", "setting": "BT-549 [13]", "result": "Active"},
      {"measurement": "Activity", "setting": "MDA-MB-231 [14]", "result": "Active"},
      {"measurement": "Activity", "setting": "MDA-MB-231 [15]", "result": "Active"},
      {"measurement": "Activity", "setting": "[16]", "result": "inactive"},
      {"measurement": "Activity", "setting": "U-251 [17]", "result": "Active"},
      {"measurement": "Activity", "setting": "U-251 [18]", "result": "Active"},
      {"measurement": "Activity", "setting": "BT-549 [19]", "result": 2.17, "unit": "%"},
      {"measurement": "Activity", "setting": "BT-549 [20]", "result": 10, "unit": "%"},
      {"measurement": "Activity", "setting": "MDA-MB-231 [21]", "result": "Active"},
      {"measurement": "Activity", "setting": "[22]", "result": "Tde"},
      {"measurement": "Activity", "setting": "[23]", "result": "Active"},
      {"measurement": "Activity", "setting": "MDA-MB-231 [24]", "result": "Active"},
      {"measurement": "Activity", "setting": "[25]", "result": "inactive"},
      {"measurement": "Activity", "setting": "BT-549 [26]", "result": "Dose-dependent effect"},
      {"measurement": "Activity", "setting": "U-251 [27]", "result": "Active"},
      {"measurement": "Activity", "setting": "BT-549 [28]", "result": "Active"}
    ]}
  ]
}
